Test results reported in ChEMBL document CHEMBL5724914, “Linking interpersonal differences in gut microbiota composition and drug biotransformation activity” (2024).

Tests used:
[1] = (§1) The drug is tested on Z-028 corresponding to mouse gut metagenome with ENA study accession number: PRJEB37062 and ENA sample accession number: ERS12561827 for biotransformation under anaerobic condition. The drug concentrations were measured over 9 timepoints collected between 0 and 24 hours of incubation by liquid-chromatography-coupled mass spectrometry (LC–MS); conditions: 2 µM
[2] = as §1, with “WLS-220” for “Z-028”, “human” for “mouse”, “ERS12561769” for “ERS12561827”; conditions: 2 µM
[3] = human gut metagenome, 24 h, 2 µM
[4] = as §1, with “WLS-086” for “Z-028”, “human” for “mouse”, “ERS12561752” for “ERS12561827”; conditions: 2 µM
[5] = human gut metagenome, 24 h, 2 µM; remark: listed apart in the source
[6] = human gut metagenome, 24 h, 2 µM; remark: listed apart in the source
[7] = as §1, with “Z-003” for “Z-028”, “pig” for “mouse”, “ERS12561803” for “ERS12561827”; conditions: 2 µM
[8] = human gut metagenome, 24 h, 2 µM; remark: listed apart in the source
[9] = as §1, with “Z-022” for “Z-028”, “ERS12561821” for “ERS12561827”; conditions: 2 µM
[10] = human gut metagenome, 24 h, 2 µM; remark: listed apart in the source
[11] = as §1, with “Z-007” for “Z-028”, “rat” for “mouse”, “ERS12561807” for “ERS12561827”; conditions: 2 µM
[12] = human gut metagenome, 24 h, 2 µM; remark: listed apart in the source
[13] = human gut metagenome, 24 h, 2 µM; remark: listed apart in the source
[14] = as §1, with “Z-004” for “Z-028”, “to” for “to mouse gut”, “ERS12561804” for “ERS12561827”; conditions: 2 µM
[15] = as §1, with “Z-011” for “Z-028”, “ERS12561811” for “ERS12561827”; conditions: 2 µM
[16] = as §1, with “WLS-027” for “Z-028”, “human” for “mouse”, “ERS12561744” for “ERS12561827”; conditions: 2 µM
[17] = as §1, with “Z-018” for “Z-028”, “pig” for “mouse”, “ERS12561817” for “ERS12561827”; conditions: 2 µM
[18] = as §1, with “WLS-069” for “Z-028”, “human” for “mouse”, “ERS12561748” for “ERS12561827”; conditions: 2 µM
[19] = as §1, with “WLS-170” for “Z-028”, “human” for “mouse”, “ERS12561762” for “ERS12561827”; conditions: 2 µM
[20] = human gut metagenome, 24 h, 2 µM; remark: listed apart in the source
Note: call rule not given here.

SMILES: CCN(CC)CCOCCOC(=O)C1(c2ccccc2)CCCC1.O=C(O)CC(O)(CC(=O)O)C(=O)O [CARBETAPENTANE CITRATE]
- Bacterial Biotransformation [1]: Compound NOT metabolized
- Bacterial Biotransformation [2]: Compound metabolized
- Bacterial Biotransformation [3]: Compound NOT metabolized
- Bacterial Biotransformation [4]: Compound NOT metabolized
- Bacterial Biotransformation [5]: Compound metabolized
- Bacterial Biotransformation [6]: Compound metabolized
- Bacterial Biotransformation [7]: Compound metabolized
- Bacterial Biotransformation [8]: Compound NOT metabolized
- Bacterial Biotransformation [9]: Compound metabolized
- Bacterial Biotransformation [10]: Compound metabolized
- Bacterial Biotransformation [11]: Compound NOT metabolized
- Bacterial Biotransformation [12]: Compound NOT metabolized
- Bacterial Biotransformation [13]: Compound metabolized
- Bacterial Biotransformation [14]: Compound metabolized
- Bacterial Biotransformation [15]: Compound NOT metabolized
- Bacterial Biotransformation [16]: Compound metabolized
- Bacterial Biotransformation [17]: Compound metabolized
- Bacterial Biotransformation [18]: Compound metabolized
- Bacterial Biotransformation [19]: Compound metabolized
- Bacterial Biotransformation [20]: Compound metabolized

SMILES: O=C(O)COCCN1CCN(C(c2ccccc2)c2ccc(Cl)cc2)CC1 (stereo not given) [CETIRIZINE]
- Bacterial Biotransformation [1]: Compound NOT metabolized
- Bacterial Biotransformation [2]: Compound metabolized
- Bacterial Biotransformation [3]: Compound metabolized
- Bacterial Biotransformation [4]: Compound metabolized
- Bacterial Biotransformation [5]: Compound metabolized
- Bacterial Biotransformation [6]: Compound metabolized
- Bacterial Biotransformation [7]: Compound metabolized
- Bacterial Biotransformation [8]: Compound metabolized
- Bacterial Biotransformation [9]: Compound metabolized
- Bacterial Biotransformation [10]: Compound metabolized
- Bacterial Biotransformation [11]: Compound NOT metabolized
- Bacterial Biotransformation [12]: Compound metabolized
- Bacterial Biotransformation [13]: Compound metabolized
- Bacterial Biotransformation [14]: Compound metabolized
- Bacterial Biotransformation [15]: Compound NOT metabolized
- Bacterial Biotransformation [16]: Compound metabolized
- Bacterial Biotransformation [17]: Compound NOT metabolized
- Bacterial Biotransformation [18]: Compound metabolized
- Bacterial Biotransformation [19]: Compound metabolized
- Bacterial Biotransformation [20]: Compound metabolized

SMILES: CN/C(=N/CCSCc1nc[nH]c1C)NC#N [CIMETIDINE]
- Bacterial Biotransformation [1]: Compound NOT metabolized
- Bacterial Biotransformation [2]: Compound metabolized
- Bacterial Biotransformation [3]: Compound NOT metabolized
- Bacterial Biotransformation [4]: Compound metabolized
- Bacterial Biotransformation [5]: Compound metabolized
- Bacterial Biotransformation [6]: Compound metabolized
- Bacterial Biotransformation [7]: Compound NOT metabolized
- Bacterial Biotransformation [8]: Compound NOT metabolized
- Bacterial Biotransformation [9]: Compound NOT metabolized
- Bacterial Biotransformation [10]: Compound NOT metabolized
- Bacterial Biotransformation [11]: Compound NOT metabolized
- Bacterial Biotransformation [12]: Compound NOT metabolized
- Bacterial Biotransformation [13]: Compound NOT metabolized
- Bacterial Biotransformation [14]: Compound NOT metabolized
- Bacterial Biotransformation [15]: Compound NOT metabolized
- Bacterial Biotransformation [16]: Compound metabolized
- Bacterial Biotransformation [17]: Compound metabolized
- Bacterial Biotransformation [18]: Compound metabolized
- Bacterial Biotransformation [19]: Compound metabolized
- Bacterial Biotransformation [20]: Compound metabolized

SMILES: Br.CN(C)CCCC1(c2ccc(F)cc2)OCc2cc(C#N)ccc21 (stereo not given) [CITALOPRAM HYDROBROMIDE]
- Bacterial Biotransformation [1]: Compound NOT metabolized
- Bacterial Biotransformation [2]: Compound NOT metabolized
- Bacterial Biotransformation [3]: Compound NOT metabolized
- Bacterial Biotransformation [4]: Compound metabolized
- Bacterial Biotransformation [5]: Compound metabolized
- Bacterial Biotransformation [6]: Compound metabolized
- Bacterial Biotransformation [7]: Compound NOT metabolized
- Bacterial Biotransformation [8]: Compound NOT metabolized
- Bacterial Biotransformation [9]: Compound NOT metabolized
- Bacterial Biotransformation [10]: Compound NOT metabolized
- Bacterial Biotransformation [11]: Compound NOT metabolized
- Bacterial Biotransformation [12]: Compound NOT metabolized
- Bacterial Biotransformation [13]: Compound metabolized
- Bacterial Biotransformation [14]: Compound NOT metabolized
- Bacterial Biotransformation [15]: Compound metabolized
- Bacterial Biotransformation [16]: Compound NOT metabolized
- Bacterial Biotransformation [17]: Compound NOT metabolized
- Bacterial Biotransformation [18]: Compound metabolized
- Bacterial Biotransformation [19]: Compound metabolized
- Bacterial Biotransformation [20]: Compound metabolized

SMILES: CN(C)CCC=C1c2ccccc2C=Cc2ccccc21 [CYCLOBENZAPRINE]
- Bacterial Biotransformation [1]: Compound NOT metabolized
- Bacterial Biotransformation [2]: Compound metabolized
- Bacterial Biotransformation [3]: Compound metabolized
- Bacterial Biotransformation [4]: Compound metabolized
- Bacterial Biotransformation [5]: Compound metabolized
- Bacterial Biotransformation [6]: Compound metabolized
- Bacterial Biotransformation [7]: Compound metabolized
- Bacterial Biotransformation [8]: Compound metabolized
- Bacterial Biotransformation [9]: Compound NOT metabolized
- Bacterial Biotransformation [10]: Compound NOT metabolized
- Bacterial Biotransformation [11]: Compound NOT metabolized
- Bacterial Biotransformation [12]: Compound NOT metabolized
- Bacterial Biotransformation [13]: Compound NOT metabolized
- Bacterial Biotransformation [14]: Compound metabolized
- Bacterial Biotransformation [15]: Compound NOT metabolized
- Bacterial Biotransformation [16]: Compound metabolized
- Bacterial Biotransformation [17]: Compound metabolized
- Bacterial Biotransformation [18]: Compound metabolized
- Bacterial Biotransformation [19]: Compound metabolized
- Bacterial Biotransformation [20]: Compound NOT metabolized

SMILES: C[C@@H]1C[C@H]2[C@@H]3CCC4=CC(=O)C=C[C@]4(C)[C@@]3(F)[C@@H](O)C[C@]2(C)[C@@]1(O)C(=O)CO [DEXAMETHASONE]
- Bacterial Biotransformation [1]: Compound NOT metabolized
- Bacterial Biotransformation [2]: Compound NOT metabolized
- Bacterial Biotransformation [3]: Compound NOT metabolized
- Bacterial Biotransformation [4]: Compound metabolized
- Bacterial Biotransformation [5]: Compound NOT metabolized
- Bacterial Biotransformation [6]: Compound NOT metabolized
- Bacterial Biotransformation [7]: Compound metabolized
- Bacterial Biotransformation [8]: Compound NOT metabolized
- Bacterial Biotransformation [9]: Compound metabolized
- Bacterial Biotransformation [10]: Compound NOT metabolized
- Bacterial Biotransformation [11]: Compound NOT metabolized
- Bacterial Biotransformation [12]: Compound NOT metabolized
- Bacterial Biotransformation [13]: Compound NOT metabolized
- Bacterial Biotransformation [14]: Compound metabolized
- Bacterial Biotransformation [15]: Compound NOT metabolized
- Bacterial Biotransformation [16]: Compound NOT metabolized
- Bacterial Biotransformation [17]: Compound metabolized
- Bacterial Biotransformation [18]: Compound NOT metabolized
- Bacterial Biotransformation [19]: Compound NOT metabolized
- Bacterial Biotransformation [20]: Compound NOT metabolized

SMILES: O=C(Nc1ccccc1)OCC(CN1CCCCC1)OC(=O)Nc1ccccc1 (stereo not given) [DIPERODON]
- Bacterial Biotransformation [1]: Compound NOT metabolized
- Bacterial Biotransformation [2]: Compound metabolized
- Bacterial Biotransformation [3]: Compound NOT metabolized
- Bacterial Biotransformation [4]: Compound metabolized
- Bacterial Biotransformation [5]: Compound metabolized
- Bacterial Biotransformation [6]: Compound metabolized
- Bacterial Biotransformation [7]: Compound metabolized
- Bacterial Biotransformation [8]: Compound NOT metabolized
- Bacterial Biotransformation [9]: Compound NOT metabolized
- Bacterial Biotransformation [10]: Compound NOT metabolized
- Bacterial Biotransformation [11]: Compound NOT metabolized
- Bacterial Biotransformation [12]: Compound NOT metabolized
- Bacterial Biotransformation [13]: Compound NOT metabolized
- Bacterial Biotransformation [14]: Compound metabolized
- Bacterial Biotransformation [15]: Compound NOT metabolized
- Bacterial Biotransformation [16]: Compound metabolized
- Bacterial Biotransformation [17]: Compound NOT metabolized
- Bacterial Biotransformation [18]: Compound metabolized
- Bacterial Biotransformation [19]: Compound metabolized
- Bacterial Biotransformation [20]: Compound metabolized

SMILES: CC(C)N(CCC(C(N)=O)(c1ccccc1)c1ccccn1)C(C)C.O=P(O)(O)O (stereo not given) [DISOPYRAMIDE PHOSPHATE]
- Bacterial Biotransformation [1]: Compound NOT metabolized
- Bacterial Biotransformation [2]: Compound NOT metabolized
- Bacterial Biotransformation [3]: Compound NOT metabolized
- Bacterial Biotransformation [4]: Compound metabolized
- Bacterial Biotransformation [5]: Compound NOT metabolized
- Bacterial Biotransformation [6]: Compound metabolized
- Bacterial Biotransformation [7]: Compound NOT metabolized
- Bacterial Biotransformation [8]: Compound NOT metabolized
- Bacterial Biotransformation [9]: Compound NOT metabolized
- Bacterial Biotransformation [10]: Compound NOT metabolized
- Bacterial Biotransformation [11]: Compound NOT metabolized
- Bacterial Biotransformation [12]: Compound NOT metabolized
- Bacterial Biotransformation [13]: Compound NOT metabolized
- Bacterial Biotransformation [14]: Compound NOT metabolized
- Bacterial Biotransformation [15]: Compound NOT metabolized
- Bacterial Biotransformation [16]: Compound NOT metabolized
- Bacterial Biotransformation [17]: Compound NOT metabolized
- Bacterial Biotransformation [18]: Compound NOT metabolized
- Bacterial Biotransformation [19]: Compound NOT metabolized
- Bacterial Biotransformation [20]: Compound metabolized
